Source: the NIST ThermoML archive (doi:10.1016/j.jct.2015.05.028)

Assay: mn = molality of the nth substance listed, in mol/kg
Settings: 99.6 kPa, Liquid, Vibrating tube method

CCN1C(=O)N(CC)C2NC(=O)NC21 (stereo not given) + O
mass density [kg/m3]
Settings	278.15 K	288.15 K	298.15 K	308.15 K	318.15 K
m1 = 0.01158	1000.48	999.594	997.533	994.508	990.681
m1 = 0.01315	1000.54	999.667	997.589	994.565	990.747
m1 = 0.01794	1000.76	999.871	997.801	994.774	990.935
m1 = 0.02385	1001.02	1000.12	998.052	995.029	991.185
m1 = 0.02832	1001.21	1000.32	998.231	995.196	991.363
m1 = 0.03477	1001.5	1000.6	998.521	995.477	991.629
m1 = 0.04062	1001.76	1000.85	998.752	995.71	991.866
m1 = 0.04476	1001.95	1001.03	998.934	995.885	992.035
m1 = 0.04841	1002.11	1001.18	999.081	996.03	992.176
m1 = 0.0537	1002.35	1001.42	999.318	996.256	992.398
m1 = 0.05905	1002.58	1001.63	999.528	996.468	992.605
m1 = 0.06432	1002.81	1001.87	999.742	996.678	992.818
m1 = 0.06647	1002.9	1001.96	999.836	996.759	992.893
m1 = 0.06907	1003.01	1002.07	999.94	996.876	993.011
